Source: the supplement of paper PMC10307832

Assays:
Assay in all cases: relative viability (nuclei count vs DMSO), 5 days (fraction); higher = more cells survive
[1] = test system: 201T
How it was run: (§1)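 Relative viability equals treated-well nuclei counts divided by vehicle-well nuclei counts. Counts came from 4× images of lung cancer cell lines grown in 1536-well plates for 5 days after pin-tool dosing on the day after seeding. Dosing used one drug alone or a fixed anchor-drug dose plus five library-drug doses (not always all listed) in √10 steps, and values are medians of duplicate plates.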

[2] = test system: A-427
How it was run: as §1

[3] = test system: BEN
How it was run: as §1

[4] = test system: COR-L 105
How it was run: as §1

[5] = test system: COR-L23
How it was run: as §1

[6] = test system: EKVX
How it was run: as §1

[7] = test system: EMC-BAC-2
How it was run: as §1

[8] = test system: HCC-15
How it was run: as §1

[9] = test system: HCC-366
How it was run: as §1

[10] = test system: HCC-78
How it was run: as §1

[11] = test system: HOP-62
How it was run: as §1

[12] = test system: LK-2
How it was run: as §1

[13] = test system: NCI-H1563
How it was run: as §1

[14] = test system: NCI-H1734
How it was run: as §1

[15] = test system: NCI-H1915
How it was run: as §1

[16] = test system: NCI-H1993
How it was run: as §1

[17] = test system: NCI-H2405
How it was run: as §1

[18] = test system: NCI-H460
How it was run: as §1

[19] = test system: NCI-H522
How it was run: as §1

[20] = test system: NCI-H647
How it was run: as §1

[21] = test system: NCI-H661
How it was run: as §1

[22] = test system: PC-14
How it was run: as §1

[23] = test system: SK-MES-1
How it was run: as §1

`CCNC(=O)c1noc(-c2cc(C(C)C)c(O)cc2O)c1-c1ccc(CN2CCOCC2)cc1` [Luminespib] + Cc1nc(Nc2ncc(C(=O)Nc3c(C)cccc3Cl)s2)cc(N2CCN(CCO)CC2)n1 [Dasatinib] (partner 0.075 µM) was tested. Which relative viability ([1]; first compound 0.002 µM) did it give?
The relative viability was 0.524.

And the relative viability ([1]; first compound 0.006325 µM)?
The relative viability was 0.614.

And the relative viability ([1]; first compound 0.02 µM)?
The relative viability was 0.506.

And the relative viability ([1]; first compound 0.06325 µM)?
The relative viability was 0.569.

And the relative viability ([1]; first compound 0.2 µM)?
Its relative viability is 0.237.

What about the relative viability ([2]; first compound 0.002 µM) of the same compound?
The relative viability was 0.779.

And the relative viability ([2]; first compound 0.006325 µM)?
The relative viability was 0.671.

And the relative viability ([2]; first compound 0.02 µM)?
The relative viability was 0.483.

And the relative viability ([2]; first compound 0.06325 µM)?
Its relative viability is 0.33.

What about the relative viability ([2]; first compound 0.2 µM) of the same compound?
The relative viability was 0.128.

What about the relative viability ([3]; first compound 0.002 µM) of the same compound?
Its relative viability is 0.323.

What about the relative viability ([3]; first compound 0.006325 µM) of the same compound?
Its relative viability is 0.303.

What about the relative viability ([3]; first compound 0.02 µM) of the same compound?
Its relative viability is 0.263.

What about the relative viability ([3]; first compound 0.06325 µM) of the same compound?
The relative viability was 0.334.

What about the relative viability ([3]; first compound 0.2 µM) of the same compound?
Its relative viability is 0.192.

What about the relative viability ([4]; first compound 0.002 µM) of the same compound?
Its relative viability is 0.344.

What about the relative viability ([4]; first compound 0.006325 µM) of the same compound?
Its relative viability is 0.322.

What about the relative viability ([4]; first compound 0.02 µM) of the same compound?
The relative viability was 0.248.

What about the relative viability ([4]; first compound 0.06325 µM) of the same compound?
The relative viability was 0.157.

What about the relative viability ([4]; first compound 0.2 µM) of the same compound?
The relative viability was 0.145.

What about the relative viability ([5]; first compound 0.002 µM) of the same compound?
The relative viability was 0.6.

And the relative viability ([5]; first compound 0.006325 µM)?
Its relative viability is 0.363.

And the relative viability ([5]; first compound 0.02 µM)?
The relative viability was 0.433.

What about the relative viability ([5]; first compound 0.06325 µM) of the same compound?
Its relative viability is 0.0438.

What about the relative viability ([5]; first compound 0.2 µM) of the same compound?
The relative viability was 0.0462.

What about the relative viability ([6]; first compound 0.002 µM) of the same compound?
Its relative viability is 0.311.

What about the relative viability ([6]; first compound 0.006325 µM) of the same compound?
Its relative viability is 0.509.

And the relative viability ([6]; first compound 0.02 µM)?
Its relative viability is 0.403.

What about the relative viability ([6]; first compound 0.06325 µM) of the same compound?
Its relative viability is 0.515.

What about the relative viability ([6]; first compound 0.2 µM) of the same compound?
Its relative viability is 0.393.

What about the relative viability ([7]; first compound 0.002 µM) of the same compound?
Its relative viability is 0.355.

And the relative viability ([7]; first compound 0.006325 µM)?
The relative viability was 0.351.

What about the relative viability ([7]; first compound 0.02 µM) of the same compound?
The relative viability was 0.312.

And the relative viability ([7]; first compound 0.06325 µM)?
Its relative viability is 0.395.

And the relative viability ([7]; first compound 0.2 µM)?
The relative viability was 0.172.

And the relative viability ([8]; first compound 0.002 µM)?
The relative viability was 0.708.

What about the relative viability ([8]; first compound 0.006325 µM) of the same compound?
Its relative viability is 0.603.

What about the relative viability ([8]; first compound 0.02 µM) of the same compound?
The relative viability was 0.61.

What about the relative viability ([8]; first compound 0.06325 µM) of the same compound?
Its relative viability is 0.084.

What about the relative viability ([8]; first compound 0.2 µM) of the same compound?
Its relative viability is 0.0846.

And the relative viability ([9]; first compound 0.002 µM)?
The relative viability was 0.615.

What about the relative viability ([9]; first compound 0.006325 µM) of the same compound?
The relative viability was 0.576.

What about the relative viability ([9]; first compound 0.02 µM) of the same compound?
Its relative viability is 0.652.

And the relative viability ([9]; first compound 0.06325 µM)?
The relative viability was 0.0301.

What about the relative viability ([9]; first compound 0.2 µM) of the same compound?
The relative viability was 0.0393.

What about the relative viability ([10]; first compound 0.002 µM) of the same compound?
Its relative viability is 0.373.

What about the relative viability ([10]; first compound 0.006325 µM) of the same compound?
Its relative viability is 0.251.

And the relative viability ([10]; first compound 0.06325 µM)?
The relative viability was 0.455.

What about the relative viability ([10]; first compound 0.2 µM) of the same compound?
Its relative viability is 0.204.

And the relative viability ([11]; first compound 0.002 µM)?
Its relative viability is 0.734.

What about the relative viability ([11]; first compound 0.006325 µM) of the same compound?
Its relative viability is 0.611.

And the relative viability ([11]; first compound 0.02 µM)?
The relative viability was 0.603.

And the relative viability ([11]; first compound 0.06325 µM)?
The relative viability was 0.408.

What about the relative viability ([11]; first compound 0.2 µM) of the same compound?
The relative viability was 0.102.

And the relative viability ([12]; first compound 0.002 µM)?
Its relative viability is 0.267.

And the relative viability ([12]; first compound 0.006325 µM)?
The relative viability was 0.293.

And the relative viability ([12]; first compound 0.02 µM)?
Its relative viability is 0.251.

And the relative viability ([12]; first compound 0.06325 µM)?
The relative viability was 0.146.

And the relative viability ([12]; first compound 0.2 µM)?
Its relative viability is 0.128.

And the relative viability ([13]; first compound 0.002 µM)?
The relative viability was 0.453.

And the relative viability ([13]; first compound 0.006325 µM)?
The relative viability was 0.476.

And the relative viability ([13]; first compound 0.02 µM)?
The relative viability was 0.394.

What about the relative viability ([13]; first compound 0.06325 µM) of the same compound?
The relative viability was 0.353.

What about the relative viability ([13]; first compound 0.2 µM) of the same compound?
Its relative viability is 0.341.

What about the relative viability ([14]; first compound 0.002 µM) of the same compound?
The relative viability was 0.552.

What about the relative viability ([14]; first compound 0.006325 µM) of the same compound?
Its relative viability is 0.419.

What about the relative viability ([14]; first compound 0.02 µM) of the same compound?
The relative viability was 0.314.

And the relative viability ([14]; first compound 0.06325 µM)?
Its relative viability is 0.117.

And the relative viability ([14]; first compound 0.2 µM)?
Its relative viability is 0.106.

And the relative viability ([15]; first compound 0.002 µM)?
Its relative viability is 0.311.

What about the relative viability ([15]; first compound 0.006325 µM) of the same compound?
The relative viability was 0.299.

And the relative viability ([15]; first compound 0.02 µM)?
Its relative viability is 0.234.

And the relative viability ([15]; first compound 0.06325 µM)?
The relative viability was 0.236.

What about the relative viability ([15]; first compound 0.2 µM) of the same compound?
The relative viability was 0.0739.

What about the relative viability ([16]; first compound 0.002 µM) of the same compound?
The relative viability was 0.633.

And the relative viability ([16]; first compound 0.006325 µM)?
The relative viability was 0.534.

And the relative viability ([16]; first compound 0.02 µM)?
The relative viability was 0.431.

And the relative viability ([16]; first compound 0.06325 µM)?
Its relative viability is 0.331.

And the relative viability ([16]; first compound 0.2 µM)?
Its relative viability is 0.353.

What about the relative viability ([17]; first compound 0.002 µM) of the same compound?
Its relative viability is 0.226.

And the relative viability ([17]; first compound 0.006325 µM)?
The relative viability was 0.182.

What about the relative viability ([17]; first compound 0.02 µM) of the same compound?
The relative viability was 0.178.

And the relative viability ([17]; first compound 0.06325 µM)?
Its relative viability is 0.164.

What about the relative viability ([17]; first compound 0.2 µM) of the same compound?
The relative viability was 0.138.

What about the relative viability ([18]; first compound 0.002 µM) of the same compound?
Its relative viability is 0.462.

And the relative viability ([18]; first compound 0.006325 µM)?
Its relative viability is 0.481.

What about the relative viability ([18]; first compound 0.02 µM) of the same compound?
The relative viability was 0.251.

And the relative viability ([18]; first compound 0.06325 µM)?
The relative viability was 0.0185.

What about the relative viability ([18]; first compound 0.2 µM) of the same compound?
The relative viability was 0.0168.

And the relative viability ([19]; first compound 0.002 µM)?
The relative viability was 1.1.

And the relative viability ([19]; first compound 0.006325 µM)?
Its relative viability is 0.936.

What about the relative viability ([19]; first compound 0.02 µM) of the same compound?
Its relative viability is 0.776.

And the relative viability ([19]; first compound 0.06325 µM)?
The relative viability was 0.577.

And the relative viability ([19]; first compound 0.2 µM)?
The relative viability was 0.481.

What about the relative viability ([20]; first compound 0.002 µM) of the same compound?
Its relative viability is 0.199.

What about the relative viability ([20]; first compound 0.006325 µM) of the same compound?
Its relative viability is 0.13.

And the relative viability ([20]; first compound 0.02 µM)?
Its relative viability is 0.13.

And the relative viability ([20]; first compound 0.06325 µM)?
Its relative viability is 0.0549.

And the relative viability ([20]; first compound 0.2 µM)?
Its relative viability is 0.0598.

And the relative viability ([21]; first compound 0.002 µM)?
The relative viability was 0.891.

And the relative viability ([21]; first compound 0.006325 µM)?
The relative viability was 0.954.

What about the relative viability ([21]; first compound 0.02 µM) of the same compound?
Its relative viability is 0.662.

And the relative viability ([21]; first compound 0.06325 µM)?
Its relative viability is 0.286.

And the relative viability ([21]; first compound 0.2 µM)?
The relative viability was 0.233.

And the relative viability ([22]; first compound 0.002 µM)?
The relative viability was 0.253.

What about the relative viability ([22]; first compound 0.006325 µM) of the same compound?
Its relative viability is 0.272.

And the relative viability ([22]; first compound 0.02 µM)?
Its relative viability is 0.0443.

And the relative viability ([22]; first compound 0.06325 µM)?
The relative viability was 0.0382.

What about the relative viability ([22]; first compound 0.2 µM) of the same compound?
Its relative viability is 0.0374.

And the relative viability ([23]; first compound 0.002 µM)?
Its relative viability is 0.333.

And the relative viability ([23]; first compound 0.006325 µM)?
The relative viability was 0.376.

And the relative viability ([23]; first compound 0.02 µM)?
The relative viability was 0.217.

What about the relative viability ([23]; first compound 0.06325 µM) of the same compound?
The relative viability was 0.0911.

What about the relative viability ([23]; first compound 0.2 µM) of the same compound?
Its relative viability is 0.0956.
